Like-named read-outs stand apart in the source and are kept apart here.
Legend:
GST enzyme = assay: GST activity assay in RL-34 cell lysate after treatment; assay type: cell-based, rat; details: RL-34 cells, 2 days, ratio over DMSO control
[1] = system: phase II enzymes (GSTA1 and NQO1)
[2] = system: heme oxygenase (HO-1) luciferase reporter; assay: Heme oxygenase (HO-1) luciferase reporter in HepG2 cells; details: HepG2 cell line; for Fold Induction of heme oxygenase luciferase activity: 24 hours, ratio over vehicle control, concentration not given; for expression of heme oxygenase promoter activity (in words): thirty percent induction over DMSO control considered active
NQO1 enzyme = assay: NADPH quinone oxido reductase (NQO1) activity assay in RL-34 cell lysate after treatment; details: RL-34 cells, 2 days, ratio of treated over vehicle control
[3] = system: metallothionein (MT 1, 2)
Nrf-2 = assay: Western blot of Nrf-2 in the nuclear fraction of HepG2 cells; assay type: cell-based, human; details: 4 hours, FIGS. 3 and 4
Method: Western blot detection—The HepG2 cell line was cultured as above and test compounds were added for four hours, after which the cells were lysed and the nuclear fraction was isolated (Dignam, J. D., R. M. Lebovitz, and R. G. Roeder, Nucleic Acids Res, 11(5): 1475-89, 1983). Total protein concentration was determined using the Bicinchoninic Acid Kit (Sigma). Total cell lysates (60 μg total protein) were electrophoresed and detection of Nrf-2 was performed using primary antibody incubation overnight at 4° C. (Santa Cruz Biotechnology, Inc, Santa Cruz, Calif.). Secondary antibody linked to horseradish peroxidase was incubated for one h (GE Healthcare, Piscataway, N.J.), after which proteins were visualized using the enhanced chemiluminescence (ECL) system. Densitometry was performed using Kodak Molecular Imaging Software v.4.0 (Eastman Kodak Company, Rochester, N.Y.) measuring the net intensity of the band.

[4] = HepG2 cells, 8 hours, 25 μg/ml, average of GSTA1 and NQO1

Molecule: C=C1CC[C@@H]2[C@](C)(CO)[C@H](O)CC[C@@]2(C)[C@@H]1C/C=C1/C(=O)OC[C@H]1O [Andrographis, 3-(2-(Decahydro-6-hydroxy-5-(hydroxymethyl)-5,8a-dimethyl-2-methylenenaphthyl)ethylidene)dihydro-4-hydroxyfuran-2(3H)-one]
- Fold Induction of GST activity (GST enzyme; 25 ug/mL): 1.4 fold
- Phase II (ave) Ratio to DMSO [1, 4]: 2.29
- Fold Induction of heme oxygenase luciferase activity [2]: 4.4 fold
- Induction of NQO1 activity (NQO1 enzyme; 25 ug/mL): 4.5
- MT 1,2 (ave) Ratio to DMSO ([3]; HepG2 cells, 8 hours, 25 μg/ml): 0.87
- HMOX1 Ratio to DMSO (heme oxygenase (HMOX1); HepG2 cells, 8 hours, 25 μg/ml): 2.43

Molecule: COc1ccc2cc3[n+](cc2c1OC)CCc1cc2c(cc1-3)OCO2 [Berberine]
- Fold Induction of GST activity (GST enzyme; 20 ug/mL): 1.0 fold
- Induction of NQO1 activity (NQO1 enzyme; 20 ug/mL): 1.4

Molecule: O=c1c(-c2ccc(O)cc2)coc2cc(O)cc(O)c12 [Bonistein]
- Fold Induction of GST activity (GST enzyme; 20 ug/mL): 1.0 fold
- Induction of NQO1 activity (NQO1 enzyme; 20 ug/mL): 1.2

Molecule: [Cl][Cd][Cl] [CdCl2, reference compound]
- Phase II (ave) Ratio to DMSO ([1]; HepG2 cells, 8 hours, 40 uM, average of GSTA1 and NQO1): 0.94
- phase II gene induction (in words) ([1]; HepG2 cells, controls): unable to increase
- MT 1,2 (ave) Ratio to DMSO ([3]; HepG2 cells, 8 hours, 40 uM): 83.31
- MT gene induction (in words) ([3]; HepG2 cells, controls): induce
- HMOX1 Ratio to DMSO (heme oxygenase (HMOX1); HepG2 cells, 8 hours, 40 uM): 21.23
- HMOX1 gene induction (in words) (heme oxygenase (HMOX1); HepG2 cells, controls): induce

Molecule: COc1cc(C=CC(=O)CC(=O)C=Cc2ccc(O)c(OC)c2)ccc1O [Curcumin, 1,7-Bis(4-hydroxy-3-methoxyphenyl)hepta-1,6-diene-3,5-dione]
- Fold Induction of GST activity (GST enzyme; 5 ug/mL): 1.0 fold
- Phase II (ave) Ratio to DMSO ([1]; HepG2 cells, 8 hours, 5 μg/ml, average of GSTA1 and NQO1): 1.15
- Fold Induction of heme oxygenase luciferase activity [2]: 6.1 fold
- expression of heme oxygenase promoter activity (in words) [2]: induced
- Induction of NQO1 activity (NQO1 enzyme; 5 ug/mL): 4.6
- MT 1,2 (ave) Ratio to DMSO ([3]; HepG2 cells, 8 hours, 5 μg/ml): 0.90
- HMOX1 Ratio to DMSO (heme oxygenase (HMOX1); HepG2 cells, 8 hours, 5 μg/ml): 2.09

Molecule: CC/C=C\C/C=C\C/C=C\C/C=C\C/C=C\C/C=C\CCC(=O)O [DHA]
- Fold Induction of GST activity (GST enzyme; 20 ug/mL): 1.0 fold
- Induction of NQO1 activity (NQO1 enzyme; 20 ug/mL): 0.9

Molecule: C[C@]12CC[C@H](O)CC1=CC[C@@H]1[C@@H]2CC[C@]2(C)C(=O)CC[C@@H]12 [DHEA]
- Induction of NQO1 activity (NQO1 enzyme; 20 ug/mL): 1.1

Molecule: c1ccc2c(Cc3c[nH]c4ccccc34)c[nH]c2c1 [DIM]
- Induction of NQO1 activity (NQO1 enzyme; 25 ug/mL): 1.5

Molecule: CC1(C)C=Cc2c(ccc3c2OC[C@@H](c2ccc(O)cc2O)C3)O1 [Glabridin]
- Fold Induction of GST activity (GST enzyme; 20 ug/mL): 1.0 fold
- Induction of NQO1 activity (NQO1 enzyme; 20 ug/mL): 1.0

Molecule: N[C@H]1C(O)O[C@H](CO)[C@@H](O)[C@@H]1O (stereo partly drawn) [Glucosamine]
- Fold Induction of GST activity (GST enzyme; 20 ug/mL): 1.1 fold
- Induction of NQO1 activity (NQO1 enzyme; 20 ug/mL): 1.0

Molecule: OCc1c[nH]c2ccccc12 [I3C]
- Fold Induction of GST activity (GST enzyme; 25 ug/mL): 1.1 fold
- Induction of NQO1 activity (NQO1 enzyme; 25 ug/mL): 2.4

Molecule: CC(C)Oc1ccc2c(=O)c(-c3ccccc3)coc2c1 [Ipriflavone]
- Fold Induction of GST activity (GST enzyme; 20 ug/mL): 1.1 fold
- Induction of NQO1 activity (NQO1 enzyme; 20 ug/mL): 0.8

Molecule: O=C([O-])CC(O)(CC(=O)[O-])C(=O)[O-].[K+].[K+].[K+] [K-Citrate]
- Fold Induction of GST activity (GST enzyme; 20 ug/mL): 1.1 fold
- Induction of NQO1 activity (NQO1 enzyme; 20 ug/mL): 0.9

Molecule: CC1(C)CC[C@]2(C(=O)O)CC[C@]3(C)C(=CC[C@@H]4[C@@]5(C)CC[C@H](O)C(C)(C)[C@@H]5CC[C@]43C)[C@@H]2C1 [Oleanolic acid]
- Fold Induction of GST activity (GST enzyme; 25 ug/mL): 1.0 fold
- Phase II (ave) Ratio to DMSO [1, 4]: 0.91
- Fold Induction of heme oxygenase luciferase activity [2]: 2.7 fold
- expression of heme oxygenase promoter activity (in words) [2]: induced
- Induction of NQO1 activity (NQO1 enzyme; 25 ug/mL): 1.5
- MT 1,2 (ave) Ratio to DMSO ([3]; HepG2 cells, 8 hours, 25 μg/ml): 2.39
- HMOX1 Ratio to DMSO (heme oxygenase (HMOX1); HepG2 cells, 8 hours, 25 μg/ml): 1.88

Molecule: C/C=C1/[C@H](O[C@@H]2O[C@H](CO)[C@@H](O)[C@H](O)[C@H]2O)OC=C(C(=O)OC)[C@H]1CC(=O)OCCc1ccc(O)c(O)c1 [Oleuropein]
- Fold Induction of GST activity (GST enzyme; 20 ug/mL): 1.0 fold
- Induction of NQO1 activity (NQO1 enzyme; 20 ug/mL): 1.0

Molecule: O=C(CCc1ccc(O)cc1)c1c(O)cc(O)cc1O[C@@H]1O[C@H](CO)[C@@H](O)[C@H](O)[C@H]1O [Phloridzin]
- Fold Induction of GST activity (GST enzyme; 20 ug/mL): 1.0 fold
- Induction of NQO1 activity (NQO1 enzyme; 20 ug/mL): 1.0

Molecule: O=c1c(O)c(-c2ccc(O)c(O)c2)oc2cc(O)cc(O)c12 [Quercitin]
- Fold Induction of GST activity (GST enzyme; 20 ug/mL): 1.0 fold
- Induction of NQO1 activity (NQO1 enzyme; 20 ug/mL): 1.4

Molecule: Oc1ccc(C=Cc2cc(O)cc(O)c2)cc1 [Resveratrol]
- Induction of NQO1 activity (NQO1 enzyme; 20 ug/mL): 2.2

Molecule: C[C@@H]1O[C@@H](OC[C@H]2O[C@@H](Oc3c(-c4ccc(O)c(O)c4)oc4cc(O)cc(O)c4c3=O)[C@H](O)[C@@H](O)[C@@H]2O)[C@H](O)[C@H](O)[C@H]1O [Rutin]
- Fold Induction of GST activity (GST enzyme; 20 ug/mL): 1.0 fold
- Induction of NQO1 activity (NQO1 enzyme; 20 ug/mL): 0.9

Molecule: C[S+]([O-])CCCCN=C=S (stereo not drawn) [Sulforaphane, reference compound]
- Fold Induction of GST activity (GST enzyme; 3 ug/mL): 1.8 fold
- Phase II (ave) Ratio to DMSO [1]: 1.84
- phase II gene induction (in words) [1]: increased
- Fold Induction of heme oxygenase luciferase activity [2]: 4.2 fold
- expression of heme oxygenase promoter activity (in words) [2]: induced
- Induction of NQO1 activity (NQO1 enzyme; 3 ug/mL): 3.7
- MT 1,2 (ave) Ratio to DMSO [3]: 0.67
- MT gene induction (in words) [3]: but not MT
- Nrf-2 nuclear translocation (Nrf-2): dramatic increase
- HMOX1 Ratio to DMSO (heme oxygenase (HMOX1)): 8.82
- HMOX1 gene induction (in words) (heme oxygenase (HMOX1)): increased

Molecule: O=c1oc2c(O)c3oc(=O)c4c5c(oc(=O)c6cc(O)c(O)c(O)c65)c(O)c5oc(=O)c(c2c2c(O)c(O)c(O)cc12)c3c54 [Terminalin]
- Fold Induction of GST activity (GST enzyme; 25 ug/mL): 1.0 fold
- Fold Induction of heme oxygenase luciferase activity [2]: 1.7 fold
- expression of heme oxygenase promoter activity (in words) [2]: induced
- Induction of NQO1 activity (NQO1 enzyme; 25 ug/mL): 1.0

Molecule: O=C1O[C@H]([C@@H](O)CO)C(O)=C1O [Vitamin C]
- Fold Induction of GST activity (GST enzyme; 20 ug/mL): 1.1 fold
- Induction of NQO1 activity (NQO1 enzyme; 20 ug/mL): 0.9

Molecule: CC(C)=CCC/C(C)=C/CC/C(C)=C/CC/C(C)=C/CC1=C(C)C(=O)c2ccccc2C1=O [Vitamin K2]
- Induction of NQO1 activity (NQO1 enzyme; 20 ug/mL): 0.9

Molecule: COc1cc(O)c(CC=C(C)C)c(O)c1C(=O)/C=C/c1ccc(O)cc1 [Xanthohumol]
- Fold Induction of GST activity (GST enzyme; 1 ug/mL): 1.4 fold
- Phase II (ave) Ratio to DMSO ([1]; HepG2 cells, 8 hours, 1 μg/ml, average of GSTA1 and NQO1): 1.02
- Fold Induction of heme oxygenase luciferase activity [2]: 5.4 fold
- expression of heme oxygenase promoter activity (in words) [2]: induced
- Induction of NQO1 activity (NQO1 enzyme; 1 ug/mL): 3.7
- MT 1,2 (ave) Ratio to DMSO ([3]; HepG2 cells, 8 hours, 1 μg/ml): 0.90
- HMOX1 Ratio to DMSO (heme oxygenase (HMOX1); HepG2 cells, 8 hours, 1 μg/ml): 1.11

Molecule: [Cl-].[Cl-].[Zn+2] [ZnCl2]
- Phase II (ave) Ratio to DMSO ([1]; HepG2 cells, 8 hours, 10 μg/ml, average of GSTA1 and NQO1): 0.94
- Fold Induction of heme oxygenase luciferase activity [2]: 1.5 fold
- expression of heme oxygenase promoter activity (in words) [2]: induced
- MT 1,2 (ave) Ratio to DMSO ([3]; HepG2 cells, 8 hours, 10 μg/ml): 12.43
- HMOX1 Ratio to DMSO (heme oxygenase (HMOX1); HepG2 cells, 8 hours, 10 μg/ml): 0.97

Molecule: O=C(/C=C/c1ccc(O)c(O)c1)O[C@@H]1C[C@](O)(C(=O)O)C[C@@H](O)[C@H]1O [chlorogenic acid]
- Fold Induction of GST activity (GST enzyme; 25 ug/mL): 1.1 fold
- Induction of NQO1 activity (NQO1 enzyme; 25 ug/mL): 1.2

Molecule: Hyaluronic acid
- Induction of NQO1 activity (NQO1 enzyme; 20 ug/mL): 0.9

Molecule: Inulin
- Induction of NQO1 activity (NQO1 enzyme; 20 ug/mL): 0.9

From patent US8241674B2, “Methods and compositions for heavy metal detoxification” (priority 2007, dated 2012)
